Read-outs that look alike come from different tables or passages of the source.
Conditions: 40° C., 15 g, UV8 membrane, 1.6 mm orifice
Source text: All prototype lure devices (i.e., the attractant receptacle and permeable membrane with enclosed volatile insect attractant) were constructed using polypropylene/calcium carbonate film (UV8) for the permeable membrane and Scotchpak™ (3M) polyester laminate film for the impermeable barrier material. Each lure device measured approximately 11.5 cm×5.5 cm with a 1.6 mm ( 1/16 in) diameter spherical punch in the impermeable layer exposing the membrane and an ˜8 mm ( 5/16 in) diameter heat seal around the circumference of the punch (referred to as a ring seal). […] Prior to being deployed the lures were weighed on an analytical balance (Sartorius, Universal; resolution of 0.01 g). Prototype lures were attached to a cord that ran the length of ventilated laboratory fume hood, with 5-8 cm (2-3 in) separating each lure in an open, ventilated room at the indicated temperature (18-20° C. or 39-41° C.). Every 2-3 days the lures were removed from the cord and weighed on the same scale. Lure weight was recorded and the weight loss (g/day) was calculated. In addition to prototype lures, two controls were included in the study consisting of a current Suterra lure product (WHF lure) and a competitor product (Comp. Prod. 1).

N.NC(=O)O [CM-NR, Ammonium carbamate]
Attractant Release Rate (5-day average per time point) (day 5): 338.4 mg/day
Attractant Release Rate (5-day average per time point) (day 10): 346.8 mg/day
Attractant Release Rate (5-day average per time point) (day 15): 370.0 mg/day
Attractant Release Rate (5-day average per time point) (day 20): 413.7 mg/day
Attractant Release Rate (5-day average per time point) (day 25): 440.0 mg/day
Attractant Release Rate (5-day average per time point) (day 30): 429.7 mg/day
Attractant Release Rate (5-day average per time point) (day 35): 408.5 mg/day
Attractant Release Rate (5-day average per time point) (day 40): 193.2 mg/day
Attractant Release Rate (5-day average per time point) (day 45): 0.0 mg/day
Attractant Release Rate (5-day average per time point) (day 49): 0.0 mg/day
Attractant Release Rate (5-day average per time point) (day 55): 0.0 mg/day

Source: patent US12178210B2, “Insect attractant and killing system” (priority 2020, dated 2024)
